Experimental findings from patent US20240425511A1, “HETEROCYCLIC COMPOUNDS FOR USE IN THE TREATMENT OF CANCER” (ARTIOS PHARMA LIMITED, priority 2021, published 2024) are described below.

SMILES strings stand for the structures.

This test concerns the target Human Polθ polymerase domain (aa1820-2590) (Homo sapiens (Human), UniProt O75417). Kind of test: Polθ Polymerase Domain WT Ki Assay (PicoGreen assay). The class given is biochemical. The following applies: average of repeat determinations; 100 nM DNA substrate, 50 μM dNTPs, 0.156 nM Polθ. Here is the method: A PicoGreen assay was used to measure the K, values of reversible compounds that inhibit the activity of Polθ in vitro.
Human Polθ polymerase domain (aa1820-2590) was expressed in E. Coli, purified, aliquoted and stored at −80° C. until required. Polθ substrate was generated from a 1.2:1 mix of DNA II Short to DNA II Long to give a final concentration of […] substrate in annealing buffer (20 mM Tris pH 7.5, 50 mM NaCl). The substrate was heated in 50 mL aliquots to 95° C. in a heating block for 5 min before the heating block switched off, the reaction left to cool to rt and stored at −20° C. until required.
Assay measurements were performed with 1× buffer comprising 25 mM Tris pH 7.5, 12.5 mM NaCl, […], 5% (v/v) glycerol, 0.01% v/v Triton x-100, 0.1 mg/ml BSA, 1 mM DTT. […]
To stop the reaction, 5 μL of a solution containing 25 mM Tris-HCl pH 7.5 and 20 mM EDTA was added at […] (t=0, 15, 30, 60, 90, 120, 150, 180 mins) using the Tempest's time delay function. […] After completing the assay, 5 μL of detection reagent (25 mM Tris-HCl pH 7.5 and 2.5% (v/v) PicoGreen) was dispensed into the wells using a Tempest liquid handler (Formulatrix) and plates subsequently read on the CLARIOstar Plus (BMG Labtech) using the default optical settings for fluorescein and the auto gain/focus settings. […]

Sequence of Human Polθ polymerase domain (aa1820-2590) (O75417 1820-2590): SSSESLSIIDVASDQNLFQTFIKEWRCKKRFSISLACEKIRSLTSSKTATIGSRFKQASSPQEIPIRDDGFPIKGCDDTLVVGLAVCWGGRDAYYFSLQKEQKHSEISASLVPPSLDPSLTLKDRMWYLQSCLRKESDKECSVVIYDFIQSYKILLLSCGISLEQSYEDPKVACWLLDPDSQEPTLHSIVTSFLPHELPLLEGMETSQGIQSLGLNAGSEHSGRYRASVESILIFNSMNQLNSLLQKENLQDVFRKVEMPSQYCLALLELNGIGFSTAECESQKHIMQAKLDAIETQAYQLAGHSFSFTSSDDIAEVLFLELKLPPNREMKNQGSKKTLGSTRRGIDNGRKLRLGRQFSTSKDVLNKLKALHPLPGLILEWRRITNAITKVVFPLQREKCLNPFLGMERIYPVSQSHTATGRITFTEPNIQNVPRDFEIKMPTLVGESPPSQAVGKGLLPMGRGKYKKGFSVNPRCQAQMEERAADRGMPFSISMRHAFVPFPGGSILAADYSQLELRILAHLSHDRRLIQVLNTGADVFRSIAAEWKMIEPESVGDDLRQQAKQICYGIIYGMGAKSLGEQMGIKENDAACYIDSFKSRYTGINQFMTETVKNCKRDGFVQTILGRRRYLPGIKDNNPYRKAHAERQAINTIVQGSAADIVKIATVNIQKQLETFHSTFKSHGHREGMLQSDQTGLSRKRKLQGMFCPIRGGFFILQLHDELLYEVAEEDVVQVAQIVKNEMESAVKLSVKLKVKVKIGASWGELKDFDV

In general, Ki refers to a measure of affinity in units of concentration, obtained from inhibition or displacement. Read a high Ki as weaker binding. `Cc1cc(C(F)(F)F)cc(N2C(=O)C[C@@H]3CN(CCN4CCN(C)CC4)c4c(C)cccc4N(C)C(=O)[C@H]32)n1` [Example 1, (3aR,11aS)-6,10-Dimethyl-1-(6-methyl-4-(trifluoromethyl)pyridin-2-yl)-5-(2-(4-methylpiperazin-1-yl)ethyl)-1,3a,4,5,10,11a-hexahydro-2H-benzo[b]pyrrolo[2,3-f][1,4]diazocine-2,11(3H)-dione]: the Ki is 1.27 nM.
